pIC50: −log10 of the molar value. Active and inactive are the calls of the source. No cut-off for these calls is given here.
Tests used:
Mus musculus [1] = assay: Analgesic activity in albino mouse assessed as inhibition of acetic acid-induced writhing at 10 mg/kg, po administered 1 hr prior to acetic acid challenge and measured after 5 to 15 mins relative to celecoxib; assay type: functional; settings: time 60-75 min
[2] = molecular target: Prostaglandin G/H synthase 1 (Homo sapiens, UniProt P23219); assay: Inhibition of recombinant human COX1 using arachidonic acid as substrate preincubated for 5 mins followed by substrate addition and measured after 2 mins by Ellman's reagent based enzyme immunoassay; assay type: ADME
[3] = molecular target: T1, Prostaglandin G/H synthase 2 (Homo sapiens, UniProt P35354); assay: Inhibition of recombinant human COX2 using arachidonic acid as substrate preincubated for 5 mins followed by substrate addition and measured after 2 mins by Ellman's reagent based enzyme immunoassay; assay type: ADME
T1 sequence (P35354 whole entry): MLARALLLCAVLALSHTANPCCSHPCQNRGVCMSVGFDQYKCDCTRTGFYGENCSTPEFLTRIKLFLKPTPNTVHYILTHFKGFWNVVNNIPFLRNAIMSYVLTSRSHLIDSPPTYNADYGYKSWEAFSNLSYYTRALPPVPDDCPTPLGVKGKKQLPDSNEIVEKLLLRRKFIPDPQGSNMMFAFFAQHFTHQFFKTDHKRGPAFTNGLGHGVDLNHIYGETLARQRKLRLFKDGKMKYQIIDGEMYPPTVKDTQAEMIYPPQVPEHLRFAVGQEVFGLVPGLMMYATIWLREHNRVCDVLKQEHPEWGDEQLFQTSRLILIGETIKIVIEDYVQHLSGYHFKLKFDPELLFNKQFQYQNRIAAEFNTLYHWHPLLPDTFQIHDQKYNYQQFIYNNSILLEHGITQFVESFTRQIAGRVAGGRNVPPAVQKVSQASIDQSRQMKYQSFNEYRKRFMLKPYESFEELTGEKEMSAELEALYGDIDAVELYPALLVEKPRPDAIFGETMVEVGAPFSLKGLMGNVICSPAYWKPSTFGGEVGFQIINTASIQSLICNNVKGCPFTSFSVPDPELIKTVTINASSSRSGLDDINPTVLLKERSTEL

[4] = Selectivity index, ratio of IC50 for recombinant human COX1 to recombinant human COX2
[5] = molecular target: T2, Bifunctional epoxide hydrolase 2 (Homo sapiens, UniProt P34913); assay: Inhibition of human sEH using epoxy flour 7 as substrate measured after 30 mins by cell-based fluorescence assay
T2 sequence (P34913 whole entry): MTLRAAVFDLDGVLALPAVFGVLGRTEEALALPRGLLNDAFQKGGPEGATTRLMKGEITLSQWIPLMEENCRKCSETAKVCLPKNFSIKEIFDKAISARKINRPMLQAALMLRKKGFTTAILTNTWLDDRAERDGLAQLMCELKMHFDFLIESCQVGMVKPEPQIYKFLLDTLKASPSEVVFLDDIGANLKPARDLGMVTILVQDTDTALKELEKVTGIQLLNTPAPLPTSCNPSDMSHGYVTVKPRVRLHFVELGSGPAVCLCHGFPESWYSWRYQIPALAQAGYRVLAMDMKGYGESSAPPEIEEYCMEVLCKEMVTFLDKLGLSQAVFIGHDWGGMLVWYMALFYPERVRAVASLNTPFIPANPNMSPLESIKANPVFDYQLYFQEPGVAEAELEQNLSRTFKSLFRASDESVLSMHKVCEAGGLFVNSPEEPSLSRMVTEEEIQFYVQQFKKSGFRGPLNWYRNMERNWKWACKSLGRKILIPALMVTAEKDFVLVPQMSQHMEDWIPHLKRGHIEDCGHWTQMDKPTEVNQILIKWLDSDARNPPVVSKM

Mus musculus [6] = assay: Analgesic activity in albino mouse assessed as inhibition of acetic acid-induced writhing at 10 mg/kg, po administered 1 hr prior to acetic acid challenge and measured after 5 to 15 mins relative to control; assay type: functional; settings: time 60-75 min
Rattus norvegicus [7] = assay: Antiinflammatory activity in albino rat model of carrageenan-induced paw edema assessed as inhibition of paw edema at 50 mg/kg, po administered 1 hr prior to carrageenan challenge and measured after 1 hr by Vernier caliper method relative to control; assay type: functional; settings: time 2 hrs
Rattus norvegicus [8] = assay: Antiinflammatory activity in albino rat model of carrageenan-induced paw edema assessed as inhibition of paw edema at 50 mg/kg, po administered 1 hr prior to carrageenan challenge and measured after 3 hrs by Vernier caliper method relative to control; assay type: functional; settings: time 4 hrs
Rattus norvegicus [9] = assay: Antiinflammatory activity in albino rat model of carrageenan-induced paw edema assessed as inhibition of paw edema at 50 mg/kg, po administered 1 hr prior to carrageenan challenge and measured after 5 hrs by Vernier caliper method relative to control; assay type: functional; settings: time 6 hrs
Rattus norvegicus [10] = assay: Cardioprotective activity in celecoxib-induced cardiotoxicity in albino Wistar rat assessed as change in serum TNFalpha level at 100 mg/kg, po administered for 2 weeks and measured on day 15 by ELISA (reference value: 748.67 +/- 43.15 pg/ml); assay type: functional; settings: time 15 day
Rattus norvegicus [11] = assay: Cardioprotective activity in celecoxib-induced cardiotoxicity in albino Wistar rat assessed as change in serum troponin-I level at 100 mg/kg, po administered for 2 weeks and measured on day 15 by ELISA (reference value: 340 +/- 11.56 pg/ml); assay type: functional; settings: time 15 day
Rattus norvegicus [12] = assay: Cardioprotective activity in celecoxib-induced cardiotoxicity in albino Wistar rat assessed as change in serum LDH level at 100 mg/kg, po administered for 2 weeks and measured on day 15 by spectrophotometry (reference value: 2091.3 +/- 99.9 IU/L); assay type: functional; settings: time 15 day
Rattus norvegicus [13] = assay: Cardioprotective activity in celecoxib-induced cardiotoxicity in albino Wistar rat assessed as change in serum creatine kinase-MB level at 100 mg/kg, po administered for 2 weeks and measured on day 15 by spectrophotometry (reference value: 95.33 +/- 4 IU/L); assay type: functional; settings: time 15 day
Rattus norvegicus [14] = assay: Cardioprotective activity in celecoxib-induced cardiotoxicity in albino Wistar rat assessed as restoration of GSH level in cardiac tissue at 100 mg/kg, po administered for 2 weeks and measured on day 15; assay type: functional, organism-based; settings: time 15.0 day
[15] = Cardiotoxicity in albino Wistar rat assessed as change in serum PGI2 level at 100 mg/kg, po administered for 2 weeks and measured on day 15 by ELISA; assay type: toxicity, organism-based; settings: in vivo, 360 h, time 15 day
Rattus norvegicus [16] = assay: Cardioprotective activity in celecoxib-induced cardiotoxicity in albino Wistar rat assessed as restoration of serum PGI2 level at 100 mg/kg, po administered for 2 weeks and measured on day 15 by ELISA; assay type: functional, organism-based; settings: time 15.0 day
Rattus norvegicus [17] = assay: Cardioprotective activity in celecoxib-induced cardiotoxicity in albino Wistar rat assessed as reduction in congestion in myocardium blood vessel at 100 mg/kg, po administered for 2 weeks and measured on day 15 by H and E staining based histopathological analysis; assay type: functional, organism-based; settings: time 15.0 day
Rattus norvegicus [18] = assay: Cardioprotective activity in celecoxib-induced cardiotoxicity in albino Wistar rat assessed as reduction in congestion in coronary artery at 100 mg/kg, po administered for 2 weeks and measured on day 15 by H and E staining based histopathological analysis; assay type: functional, organism-based; settings: time 15.0 day
Rattus norvegicus [19] = assay: Cardioprotective activity in celecoxib-induced cardiotoxicity in albino Wistar rat assessed as reduction in edema in myocardium blood vessel at 100 mg/kg, po administered for 2 weeks and measured on day 15 by H and E staining based histopathological analysis; assay type: functional, organism-based; settings: time 15.0 day
Rattus norvegicus [20] = assay: Cardioprotective activity in celecoxib-induced cardiotoxicity in albino Wistar rat assessed as reduction in edema in coronary artery at 100 mg/kg, po administered for 2 weeks and measured on day 15 by H and E staining based histopathological analysis; assay type: functional, organism-based; settings: time 15.0 day

Prostaglandin G/H synthase 1, sequence (P23219 whole entry): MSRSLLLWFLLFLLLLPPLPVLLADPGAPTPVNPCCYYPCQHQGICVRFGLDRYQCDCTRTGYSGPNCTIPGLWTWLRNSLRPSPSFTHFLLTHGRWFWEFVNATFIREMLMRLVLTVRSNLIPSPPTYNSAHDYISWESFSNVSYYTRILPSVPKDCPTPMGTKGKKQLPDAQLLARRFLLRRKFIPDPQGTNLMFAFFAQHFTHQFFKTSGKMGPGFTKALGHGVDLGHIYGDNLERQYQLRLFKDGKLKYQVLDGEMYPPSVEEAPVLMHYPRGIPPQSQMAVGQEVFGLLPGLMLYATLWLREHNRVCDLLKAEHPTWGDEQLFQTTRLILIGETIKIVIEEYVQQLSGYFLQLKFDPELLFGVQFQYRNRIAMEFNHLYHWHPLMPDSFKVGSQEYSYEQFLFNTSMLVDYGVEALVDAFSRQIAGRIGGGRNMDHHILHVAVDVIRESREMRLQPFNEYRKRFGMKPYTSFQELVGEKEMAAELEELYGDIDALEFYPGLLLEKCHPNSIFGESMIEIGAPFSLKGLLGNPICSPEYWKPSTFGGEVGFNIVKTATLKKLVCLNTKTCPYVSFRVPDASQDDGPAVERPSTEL

NS(=O)(=O)c1ccc(-n2nc(NC(=O)NC34CC5CC(CC(C5)C3)C4)cc2-c2ccccc2)cc1
fold change (FC) (Mus musculus [1]): 1.83 | pIC50 [2]: 4.93 | pIC50 [3]: 5.73 | Ratio IC50 [4]: 6.41 | pIC50 [5]: 9.26 | inhibition in vivo at 10 mg/kg (Mus musculus [6]): 24.6% | inhibition in vivo at 50 mg/kg (Rattus norvegicus [7]): 62.2% | inhibition in vivo at 50 mg/kg (Rattus norvegicus [8]): 92% | inhibition in vivo at 50 mg/kg (Rattus norvegicus [9]): 93.8% | Activity (Rattus norvegicus [10]): 322 pg/mL | Activity (Rattus norvegicus [11]): 150 pg/mL | Activity (Rattus norvegicus [12]): 1585 IU/L | Activity (Rattus norvegicus [13]): 22 IU/L | Activity (Rattus norvegicus [14]): Active | Activity [15]: Toxic | Activity (Rattus norvegicus [16]): Active | Activity (Rattus norvegicus [17]): Active | Activity (Rattus norvegicus [18]): Active | Activity (Rattus norvegicus [19]): Active | Activity (Rattus norvegicus [20]): Active

NS(=O)(=O)c1ccc(-n2nc(NC(=O)NC3CCCCC3)cc2-c2ccccc2)cc1
pIC50 [5]: 9.01

Cc1ccc(-c2cc(C(F)(F)F)nn2-c2ccc(S(N)(=O)=O)cc2)cc1 [CELECOXIB]
inhibition in vivo at 10 mg/kg (Mus musculus [6]): 13.4% | inhibition in vivo at 50 mg/kg (Rattus norvegicus [7]): 81.2% | inhibition in vivo at 50 mg/kg (Rattus norvegicus [8]): 82.7% | inhibition in vivo at 50 mg/kg (Rattus norvegicus [9]): 88.3% | Activity [15]: Toxic

NS(=O)(=O)c1ccc(-n2nc(C(=O)NC34CC5CC(CC(C5)C3)C4)cc2-c2ccccc2)cc1
fold change (FC) (Mus musculus [1]): 4.66 | pIC50 [2]: 5.05 | pIC50 [3]: 5.67 | Ratio IC50 [4]: 4.18 | pIC50 [5]: 8.94 | inhibition in vivo at 10 mg/kg (Mus musculus [6]): 62.7% | inhibition in vivo at 50 mg/kg (Rattus norvegicus [7]): 42% | inhibition in vivo at 50 mg/kg (Rattus norvegicus [8]): 76.5% | inhibition in vivo at 50 mg/kg (Rattus norvegicus [9]): 84.2%

NS(=O)(=O)c1ccc(-n2nc(C(=O)NC3CCCCC3)cc2-c2ccccc2)cc1
pIC50 [5]: 8.62

NS(=O)(=O)c1ccc(-n2nc(NC(=O)NCCCCCCCCCCC(=O)O)cc2-c2ccccc2)cc1
pIC50 [5]: 8.80

NS(=O)(=O)c1ccc(-n2nc(C(=O)NCCCCCCCCCCC(=O)O)cc2-c2ccccc2)cc1
pIC50 [5]: 8.48

NS(=O)(=O)c1ccc(-n2nc(NC(=O)Nc3ccc(C(F)(F)F)cc3)cc2-c2ccccc2)cc1
pIC50 [5]: 9.40

CCOC(=O)C1CCN(C(=O)Nc2cc(-c3ccccc3)n(-c3ccc(S(N)(=O)=O)cc3)n2)CC1
pIC50 [5]: 8.76

CCOC(=O)C1CCN(C(=O)c2cc(-c3ccccc3)n(-c3ccc(S(N)(=O)=O)cc3)n2)CC1
pIC50 [5]: 8.79

NS(=O)(=O)c1ccc(-n2nc(NC(=O)NCCCC(=O)O)cc2-c2ccccc2)cc1
pIC50 [5]: 8.40

NS(=O)(=O)c1ccc(-n2nc(C(=O)Nc3ccc(C(F)(F)F)cc3)cc2-c2ccccc2)cc1
pIC50 [5]: 8.92

NS(=O)(=O)c1ccc(-n2nc(C(=O)NCCCC(=O)O)cc2-c2ccccc2)cc1
pIC50 [5]: 8.74

Source: ChEMBL document CHEMBL4765415 (Eur J Med Chem, 2020)
